According to patent US20220031596A1, “ANTI-AGING AGENT AND ANTI-AGING METHOD” (priority 2018, published 2022):

How the values were obtained:
Format in all cases: in vivo, human
[1] = test system: growth hormone concentration in the plasma; experiment: Evaluation of growth hormone secretion promoting effect (plasma growth hormone, 24-week oral ingestion); conditions: for growth hormone concentration in the plasma, 0 weeks (before ingestion) / growth hormone concentration in the plasma, 24 weeks (after ingestion) / growth hormone concentration in the plasma, Change rate (24 weeks - 0 weeks): High Dose Group (200 mg/daily, oral), mean±SD; for growth hormone concentration in the plasma, 0 weeks (before ingestion): baseline
Method: In order to confirm a change in the growth hormone quantity before and after ingestion of the nicotinamide mononucleotide, a test was conducted on healthy males and females aged 50 to 70 years.
As a sample of Working Example 2, a capsule formulation containing the nicotinamide mononucleotide and starch (200 mg of the nicotinamide mononucleotide in 4 capsules) (manufactured by SHINKOWA PHARMACEUTICAL Co., Ltd.) was used.
(§1) Each group consisting of five healthy males and females aged 50 to 70 years in an unbiased age group ingested the above capsule formulation once a day by 4 capsules for 24 weeks (total 10 subjects, 200 mg/daily ingestion). In order to conduct appropriate evaluations, those who had been regularly using medical products for chronic diseases, those who had been consuming healthy foods that may affect clinical research, and those who were currently participating in other clinical researches or clinical trials or had participated in other clinical researches or clinical trials within the last three months were excluded from the subject for the evaluation. The capsule formulations were ingested at 10 am (between meals and fasting state) together with water or lukewarm water (oral administration).
Measurement of the growth hormone quantity in the plasma was conducted by requesting the measurement to an external public organization according to a usual method. FIGS. 4a to 4c indicate transitions of the growth hormone concentration (ng/ml) in the plasma for 24 weeks. FIG. 4a represents the transitions of the whole subjects; FIG. 4b represents the transitions of the male subjects; FIG. 4c represents the transitions of the female subjects. Further, FIGS. 5a to 5c indicate change rates (%) of the blood growth hormone concentration up to 24 weeks when the nicotinamide mononucleotide was orally administered to the subjects for 24 weeks. FIG. 5a represents the change rates of the whole subjects; FIG. 5b represents the change rates of the male subjects; FIG. 5c represents the change rates of the female subjects. Further, Table 2 indicates the numerical values of the growth hormone concentration (ng/ml) in the plasma before the ingestion of the nicotinamide mononucleotide (0 weeks) and after the ingestion of the nicotinamide mononucleotide (24 weeks). Note that the numerical values represent mean values±standard deviation.

[2] = test system: free thyroxine concentration in the plasma; experiment: Evaluation of free thyroxine (T4) secretion promoting effect (plasma free thyroxine, 24-week oral ingestion); conditions: for free thyroxine concentration in the plasma, 0 weeks (before ingestion) / free thyroxine concentration in the plasma, 24 weeks (after ingestion) / free thyroxine concentration in the plasma, Change rate (24 weeks - 0 weeks): High Dose Group (200 mg/daily, oral), mean±SD; for free thyroxine concentration in the plasma, 0 weeks (before ingestion): baseline
Method: In order to confirm a change in the free thyroxine quantity before and after ingestion of the nicotinamide mononucleotide, a test was conducted on healthy males and females aged 50 to 70 years.
As a sample of Working Example 5, a capsule formulation containing the nicotinamide mononucleotide and starch (200 mg of the nicotinamide mononucleotide in 4 capsules) (manufactured by SHINKOWA PHARMACEUTICAL Co., Ltd.) was used.
as §1, with “above high dose” for “above”
Measurement of the free thyroxine quantity in the plasma was conducted by requesting the measurement to an external public organization according to a usual method. FIGS. 10a to 10c indicate transitions of the free thyroxine concentration (ng/dl) in the plasma for 24 weeks. FIG. 10a represents the transitions of the whole subjects; FIG. 10b represents the transitions of the male subjects; FIG. 10c represents the transitions of the female subjects. Further, FIGS. 11a to 11c indicate change rates (%) of the blood free thyroxine concentration up to 24 weeks when the nicotinamide mononucleotide was orally administered to the subjects for 24 weeks. FIG. 11a represents the change rates of the whole subjects; FIG. 11b represents the change rates of the male subjects; FIG. 11c represents the change rates of the female subjects. Further, Table 5 indicates the numerical values of the free thyroxine concentration (ng/dl) in the plasma before the ingestion of the nicotinamide mononucleotide (0 weeks) and after the ingestion of the nicotinamide mononucleotide (24 weeks). Note that the numerical values represent mean values±standard deviation.

[3] = test system: calcitonin concentration in the plasma; experiment: Evaluation of calcitonin secretion promoting effect (plasma calcitonin, 24-week oral ingestion); conditions: for calcitonin concentration in the plasma, 0 weeks (before ingestion) / calcitonin concentration in the plasma, 24 weeks (after ingestion) / calcitonin concentration in the plasma, Change rate (24 weeks - 0 weeks): High Dose Group (200 mg/daily, oral), mean±SD; for calcitonin concentration in the plasma, 0 weeks (before ingestion): baseline
Method: In order to confirm a change in the calcitonin quantity before and after ingestion of the nicotinamide mononucleotide, a test was conducted on healthy males and females aged 50 to 70 years.
As a sample of Working Example 12, a capsule formulation containing the nicotinamide mononucleotide and starch (200 mg of the nicotinamide mononucleotide in 4 capsules) (manufactured by SHINKOWA PHARMACEUTICAL Co., Ltd.) was used.
as §1, with “above high dose” for “above”
Measurement of the calcitonin quantity in the plasma was conducted by requesting the measurement to an external public organization according to a usual method. FIGS. 24a to 24c indicate transitions of the calcitonin concentration (pg/ml) in the plasma for 24 weeks. FIG. 24a represents the transitions of the whole subjects; FIG. 24b represents the transitions of the male subjects; FIG. 24c represents the transitions of the female subjects. Further, FIGS. 25a to 25c indicate change rates (%) of the blood calcitonin concentration up to 24 weeks when the nicotinamide mononucleotide was orally administered to the subjects for 24 weeks. FIG. 25a represents the change rates of the whole subjects; FIG. 25b represents the change rates of the male subjects; FIG. 25c represents the change rates of the female subjects. Further, Table 11 indicates the numerical values of the calcitonin concentration (pg/ml) in the plasma before the ingestion of the nicotinamide mononucleotide (0 weeks) and after the ingestion of the nicotinamide mononucleotide (24 weeks). Note that the numerical values represent mean values±standard deviation.

NC(=O)c1ccc[n+]([C@@H]2O[C@H](COP(=O)([O-])O)[C@@H](O)[C@H]2O)c1 [nicotinamide mononucleotide]
growth hormone concentration in the plasma, 0 weeks (before ingestion) ([1]; Female): 0.91 ± 0.28 ng/mL
growth hormone concentration in the plasma, 24 weeks (after ingestion) ([1]; Female): 2.14 ± 2.22 ng/mL
growth hormone concentration in the plasma, Change rate (24 weeks - 0 weeks) ([1]; Female): 1.24 ± 2.31 ng/mL
growth hormone concentration in the plasma, 0 weeks (before ingestion) ([1]; Male): 0.21 ± 0.12 ng/mL
growth hormone concentration in the plasma, 24 weeks (after ingestion) ([1]; Male): 2.41 ± 3.44 ng/mL
growth hormone concentration in the plasma, Change rate (24 weeks - 0 weeks) ([1]; Male): 2.20 ± 3.34 ng/mL
growth hormone concentration in the plasma, 0 weeks (before ingestion) ([1]; Whole Subjects): 0.56 ± 0.42 ng/mL
growth hormone concentration in the plasma, 24 weeks (after ingestion) ([1]; Whole Subjects): 2.28 ± 2.73 ng/mL
growth hormone concentration in the plasma, Change rate (24 weeks - 0 weeks) ([1]; Whole Subjects): 1.72 ± 2.76 ng/mL
growth hormone concentrations in the plasma, effect of ingestion (in words) ([1]; oral, 200 mg/daily, 24 weeks, FIGS. 4a-4c, 5a-5c): increased
free thyroxine concentration in the plasma, 0 weeks (before ingestion) ([2]; Female): 1.10 ± 0.19 ng/dL
free thyroxine concentration in the plasma, 24 weeks (after ingestion) ([2]; Female): 1.13 ± 0.09 ng/dL
free thyroxine concentration in the plasma, Change rate (24 weeks - 0 weeks) ([2]; Female): 0.03 ± 012 ng/dL
free thyroxine concentration in the plasma, 0 weeks (before ingestion) ([2]; Male): 1.15 ± 0.19 ng/dL
free thyroxine concentration in the plasma, 24 weeks (after ingestion) ([2]; Male): 1.22 ± 0.17 ng/dL
free thyroxine concentration in the plasma, Change rate (24 weeks - 0 weeks) ([2]; Male): 0.07 ± 0.15 ng/dL
free thyroxine concentration in the plasma, 0 weeks (before ingestion) ([2]; Whole Subjects): 1.13 ± 0.18 ng/dL
free thyroxine concentration in the plasma, 24 weeks (after ingestion) ([2]; Whole Subjects): 1.18 ± 0.14 ng/dL
free thyroxine concentration in the plasma, Change rate (24 weeks - 0 weeks) ([2]; Whole Subjects): 0.05 ± 0.13 ng/dL
free thyroxine concentrations in the plasma, effect of ingestion (in words) ([2]; oral, 200 mg/daily, 24 weeks, FIGS. 10a-10c, 11a-11c): increased
calcitonin concentration in the plasma, 0 weeks (before ingestion) ([3]; Female): 0.60 ± 0.10 pg/mL
calcitonin concentration in the plasma, 24 weeks (after ingestion) ([3]; Female): 0.71 ± 0.20 pg/mL
calcitonin concentration in the plasma, Change rate (24 weeks - 0 weeks) ([3]; Female): 0.11 ± 0.10 pg/mL
calcitonin concentration in the plasma, 0 weeks (before ingestion) ([3]; Male): 2.35 ± 1.97 pg/mL
calcitonin concentration in the plasma, 24 weeks (after ingestion) ([3]; Male): 2.44 ± 2.21 pg/mL
calcitonin concentration in the plasma, Change rate (24 weeks - 0 weeks) ([3]; Male): 0.09 ± 0.37 pg/mL
calcitonin concentration in the plasma, 0 weeks (before ingestion) ([3]; Whole Subjects): 1.48 ± 1.61 pg/mL
calcitonin concentration in the plasma, 24 weeks (after ingestion) ([3]; Whole Subjects): 1.58 ± 1.74 pg/mL
calcitonin concentration in the plasma, Change rate (24 weeks - 0 weeks) ([3]; Whole Subjects): 0.10 ± 0.25 pg/mL
calcitonin concentrations in the plasma, effect of ingestion (in words) ([3]; oral, 200 mg/daily, 24 weeks, FIGS. 24a-24c, 25a-25c): increased
